# From patent US20250302080A1, “SWEETNESS AND/OR FLAVOR ENHANCER” (AJINOMOTO CO., INC., priority 2022, published 2025)
# Key:
# [1] = Sensory evaluation of sweetness intensity in RebA solution, four reference samples (Experimental Examples 17-19)
# Description: A negative control RebA solution (0.073 wt % RebA solution) was prepared by dissolving RebA in filtered water.
# (§1) A sensory evaluation of sweetness intensity was performed for each sample by a panel of four experts according to the following evaluation criteria.
# Sweetness intensity was evaluated by 0.0 to 10.0 points based on the following reference samples (negative control (hereinafter referred to as NC) (0.0 point); reference 1 (hereinafter referred to as R1) (3.2 points), reference 2 (hereinafter referred to as R2) (5.0 points); reference 3 (hereinafter referred to as R3) (10.0 points)). The average score (rounded to two decimal places) of each expert panelist was calculated. An average score of 3.0 points or more was considered to be functional. • NC (0.0 point): 0.073 wt % RebA solution (solvent: filtered water) • R1 (3.2 points): 0.073 wt % RebA solution (solvent: filtered water)+decanoic acid (10 ppb) • R2 (5.0 points): 0.077 wt % RebA solution (solvent: filtered water) • R3 (10.0 points): 0.080 wt % RebA solution (solvent: filtered water)
# A sensory evaluation of sweetness intensity was performed for each sample by a panel of four experts according to the same evaluation criteria as in Experimental Example 17.
# [2] = Sensory evaluation of sweetness intensity in sucrose solution (Experimental Examples 25-27)
# Description: A negative control sucrose solution (0.7 wt % sucrose solution) was prepared by dissolving sucrose in filtered water.
# as §1
# Sweetness intensity was evaluated by 0.0 to 10.0 points based on the following reference samples (negative control (hereinafter referred to as NC) (0.0 point); reference 1 (hereinafter referred to as R1) (3.0 points), reference 2 (hereinafter referred to as R2) (5.0 points); reference 3 (hereinafter referred to as R3) (10.0 points)). The average score (rounded to two decimal places) of each expert panelist was calculated. An average score of 3.0 points or more was considered to be functional. • NC (0.0 point): 7.0 wt % sucrose solution (solvent: filtered water) • R1 (3.0 points): 7.3 wt % sucrose solution (solvent: filtered water) • R2 (5.0 points): 7.5 wt % sucrose solution (solvent: filtered water) • R3 (10.0 points): 8.0 wt % sucrose solution (solvent: filtered water)
# A sensory evaluation of sweetness intensity was performed for each sample by a panel of four experts according to the same evaluation criteria as in Experimental Example 25.
# [3] = added alone, 3.0 points or more
compound,measurement,setting,value
O=C1C[C@@H](c2ccc(O)cc2)Oc2cc(O)cc(O)c21 [naringenin],concentration at which a sweetness-enhancing effect was confirmed,[1]; [3],≥ 10 ppm
same,sweetness intensity,[1]; naringenin alone at 1 ppm,1.8 points
same,sweetness intensity,[1]; naringenin alone at 5 ppm,2.5 points
same,sweetness intensity,[1]; naringenin alone at 10 ppm,3.3 points
same,sweetness intensity,[1]; naringenin alone at 15 ppm,4.1 points
same,sweetness intensity,[1]; naringenin alone at 30 ppm,5.0 points
same,sweetness intensity,[1]; naringenin alone at 50 ppm,5.4 points
same,concentration at which a sweetness-enhancing effect was confirmed,[2]; [3],≥ 15 ppm
same,sweetness intensity,[2]; naringenin alone at 1 ppm,1.1 points
same,sweetness intensity,[2]; naringenin alone at 5 ppm,1.7 points
same,sweetness intensity,[2]; naringenin alone at 10 ppm,2.6 points
same,sweetness intensity,[2]; naringenin alone at 15 ppm,3.6 points
same,sweetness intensity,[2]; naringenin alone at 30 ppm,4.6 points
same,sweetness intensity,[2]; naringenin alone at 50 ppm,5.8 points
